Assay results as given in patent US12350270B2, “Antimalarial agents” (Merck Sharp & Dohme LLC, priority 2019, dated 2025).

Tested on: parasites (ring stage, in human red blood cell culture)
Test: Parasite LDH growth assay (antiparasite potency, Parasite Assay)
Type: cell-based, Plasmodium falciparum
Settings: 0.7% rings, 2% haematocrit, 72 hours at 37° C., LDH readout of parasite growth
How it was run: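 Ring-stage parasites at 0.7% parasitemia and 2% haematocrit, in RPMI-Hepes/bicarbonate with 5% heat-inactivated human serum and 0.5% albumax, were added to compound-containing medium. Cultures grew 72 h at 37 °C in gassed humidified boxes. Plates were then frozen overnight at −80 °C, thawed 4 h, and growth was measured by LDH assay.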

Row | SMILES | EC50
1 | CC1(C)CC(=O)N([C@@H]2CCOc3ccc(C(=O)N[C@H]4CC(C)(C)Oc5ccccc54)cc32)C(=N)N1 [Example 106, (4R)-N-[(4S)-2,2-dimethylchroman-4-yl]-4-(2-imino-4,4-dimethyl-6-oxo-hexahydropyrimidin-1-yl)chromane-6-carboxamide] | 6.6 nM

Same assay, conditions: Plasmodium falciparum, Erythrocyte, 72 h, 0.7% rings, 2% haematocrit, 72 hours at 37° C., LDH readout of parasite growth

Row | SMILES | EC50
2 | CC1(C)CC(=O)N([C@@H]2CCc3ccc(C(=O)N[C@@H]4c5ccccc5OC(C)(C)[C@H]4O)cc32)C(=N)N1 [Example 98, (3R)-N-[(3S,4R)-3-hydroxy-2,2-dimethyl-chroman-4-yl]-3-(2-imino-4,4-dimethyl-6-oxo-hexahydropyrimidin-1-yl)indane-5-carboxamide] | 1.5 nM
3 | CC[C@]1(C)CC(=O)N([C@@H]2CCc3ccc(C(=O)N[C@@H]4c5ccccc5OC[C@]4(C)O)cc32)C(=N)N1 [Example 99, (3R)-3-[(4R)-4-ethyl-2-imino-4-methyl-6-oxo-hexahydropyrimidin-1-yl]-N-[(3R,4R)-3-hydroxy-3-methyl-chroman-4-yl]indane-5-carboxamide] | 4.2 nM
4 | CC[C@]1(C)CC(=O)N([C@@H]2CCc3ccc(C(=O)N[C@@H]4c5ccccc5OC[C@@]4(C)O)cc32)C(=N)N1 [Example 100, (3R)-3-[(4R)-4-ethyl-2-imino-4-methyl-6-oxo-hexahydropyrimidin-1-yl]-N-[(3S,4R)-3-hydroxy-3-methyl-chroman-4-yl]indane-5-carboxamide] | 5.3 nM
5 | CC1(C)CC(=O)N(C2CC(C)(C)c3ccc(C(=O)N[C@@H]4c5ccccc5OC[C@H]4O)cc32)C(=N)N1 (stereo partly drawn) [Example 101, N-[(3S,4R)-3-hydroxychroman-4-yl]-3-(2-imino-4,4-dimethyl-6-oxo-hexahydropyrimidin-1-yl)-1,1-dimethyl-indane-5-carboxamide] | 46.7 nM
6 | CC[C@]1(C)CC(=O)N([C@@H]2C[C@@H](C)Oc3ccc(C(=O)N[C@@H]4c5ccccc5C[C@H]4O)cc32)C(=N)N1 [Example 102, (2R,4R)-4-[(4R)-4-ethyl-2-imino-4-methyl-6-oxo-hexahydropyrimidin-1-yl]-N-[(1R,2R)-2-hydroxyindan-1-yl]-2-methyl-chromane-6-carboxamide] | 14 nM
7 | C[C@@H]1C[C@@H](N2C(=N)NC(C)(C)CC2=O)c2cc(C(=O)N[C@@H]3c4ccccc4OC[C@]3(C)O)ccc21 [Example 103, (1R,3R)-N-[(3R,4R)-3-hydroxy-3-methyl-chroman-4-yl]-3-(2-imino-4,4-dimethyl-6-oxo-hexahydropyrimidin-1-yl)-1-methyl-indane-5-carboxamide] | 6.1 nM
8 | C[C@@H]1C[C@@H](N2C(=N)NC(C)(C)CC2=O)c2cc(C(=O)N[C@@H]3c4ccccc4OC[C@@]3(C)O)ccc21 [Example 104, (1R,3R)-N-[(3S,4R)-3-hydroxy-3-methyl-chroman-4-yl]-3-(2-imino-4,4-dimethyl-6-oxo-hexahydropyrimidin-1-yl)-1-methyl-indane-5-carboxamide] | 5 nM
9 | CCC1(CC)CC(=O)N(C2Cc3ccc(C(=O)N[C@@H]4c5ccccc5OC[C@@]4(C)O)cc32)C(=N)N1 (stereo partly drawn) [Example 105, 8-(4,4-diethyl-2-imino-6-oxo-hexahydropyrimidin-1-yl)-N-[(3S,4R)-3-hydroxy-3-methyl-chroman-4-yl]bicyclo[4.2.0]octa-1(6),2,4-triene-3-carboxamide] | 8.8 nM
10 | CC1(C)CC(=O)N(C2c3cc(C(=O)N[C@@H]4c5ccccc5C[C@@]4(C)O)ccc3OC2(C)C)C(=N)N1 (stereo partly drawn) [Example 107, N-[(1R,2R)-2-hydroxy-2-methyl-indan-1-yl]-3-(2-imino-4,4-dimethyl-6-oxo-hexahydropyrimidin-1-yl)-2,2-dimethyl-3H-benzofuran-5-carboxamide] | 222 nM
11 | CC1(C)CC(=O)N(C2c3cc(C(=O)N[C@@H]4c5ccccc5C[C@]4(C)O)ccc3OC2(C)C)C(=N)N1 (stereo partly drawn) [Example 108, N-[(1R,2S)-2-hydroxy-2-methyl-indan-1-yl]-3-(2-imino-4,4-dimethyl-6-oxo-hexahydropyrimidin-1-yl)-2,2-dimethyl-3H-benzofuran-5-carboxamide] | 74.3 nM
12 | CO[C@@H]1COc2ccccc2[C@H]1NC(=O)c1ccc2c(c1)[C@H](N1C(=N)NC(C)(C)CC1=O)CCO2 [Example 109, (4R)-4-(2-imino-4,4-dimethyl-6-oxo-hexahydropyrimidin-1-yl)-N-[(3S,4R)-3-methoxychroman-4-yl]chromane-6-carboxamide] | 14 nM
13 | COC1COc2ccc(C(=O)N[C@@H]3c4ccccc4C[C@H]3O)cc2C1N1C(=N)NC(C)(C)CC1=O (stereo partly drawn) [Example 110, N-[(1R,2R)-2-hydroxyindan-1-yl]-4-(2-imino-4,4-dimethyl-6-oxo-hexahydropyrimidin-1-yl)-3-methoxy-chromane-6-carboxamide] | 60 nM
14 | CCC1(CC)CC(=O)N([C@@H]2CCOc3ccc(C(=O)N[C@@H](C)c4ccccc4OC)cc32)C(=N)N1 [Example 111, (4R)-4-(4,4-diethyl-2-imino-6-oxo-hexahydropyrimidin-1-yl)-N-[(1S)-1-(2-methoxyphenyl)ethyl]chromane-6-carboxamide] | 90 nM
15 | CC1(C)CC(=O)N([C@@H]2CCOc3ccc(C(=O)N[C@@H]4c5cc(F)ccc5OC[C@H]4O)cc32)C(=N)N1 [Example 112, (4R)-N-[(3S,4R)-6-fluoro-3-hydroxy-chroman-4-yl]-4-(2-imino-4,4-dimethyl-6-oxo-hexahydropyrimidin-1-yl)chromane-6-carboxamide] | 11.4 nM
16 | CC1(C)CC(=O)N([C@@H]2CC(C)(C)c3ccc(C(=O)N[C@H]4CC(C)(C)Oc5ccccc54)cc32)C(=N)N1 [Example 113, (3R)-N-[(4S)-2,2-dimethylchroman-4-yl]-3-(2-imino-4,4-dimethyl-6-oxo-hexahydropyrimidin-1-yl)-1,1-dimethyl-indane-5-carboxamide] | 16.4 nM
17 | CCC1(CC)CC(=O)N([C@@H]2CCCc3ccc(C(=O)N[C@@H]4c5ccccc5C[C@@]4(C)O)cc32)C(=N)N1 [Example 114, (4R)-4-(4,4-diethyl-2-imino-6-oxo-hexahydropyrimidin-1-yl)-N-[(1R,2R)-2-hydroxy-2-methyl-indan-1-yl]tetralin-6-carboxamide] | 1.8 nM
18 | CCC1(CC)CC(=O)N([C@@H]2C[C@@H](OC)c3ccc(C(=O)N[C@@H]4c5ccccc5C[C@H]4O)cc32)C(=N)N1 [Example 115, (1R,3R)-3-(4,4-diethyl-2-imino-6-oxo-hexahydropyrimidin-1-yl)-N-[(1R,2R)-2-hydroxyindan-1-yl]-1-methoxy-indane-5-carboxamide] | 3.6 nM
19 | CCC1(CC)CC(=O)N([C@H]2C[C@@H](OC)c3ccc(C(=O)N[C@@H]4c5ccccc5C[C@H]4O)cc32)C(=N)N1 [Example 116, (1R,3S)-3-(4,4-diethyl-2-imino-6-oxo-hexahydropyrimidin-1-yl)-N-[(1R,2R)-2-hydroxyindan-1-yl]-1-methoxy-indane-5-carboxamide] | 210 nM
20 | CCC1(CC)CC(=O)N([C@@H]2C[C@H](OC)c3ccc(C(=O)N[C@@H]4c5ccccc5C[C@H]4O)cc32)C(=N)N1 [Example 117, (1S,3R)-3-(4,4-diethyl-2-imino-6-oxo-hexahydropyrimidin-1-yl)-N-[(1R,2R)-2-hydroxyindan-1-yl]-1-methoxy-indane-5-carboxamide] | 2.5 nM
21 | CCC1(CC)CC(=O)N([C@H]2c3cc(C(=O)N[C@@H]4c5ccccc5C[C@H]4O)ccc3OC[C@H]2C)C(=N)N1 [Example 118, (3S,4R)-4-(4,4-diethyl-2-imino-6-oxo-hexahydropyrimidin-1-yl)-N-[(1R,2R)-2-hydroxyindan-1-yl]-3-methyl-chromane-6-carboxamide] | 0.9 nM
22 | CCC1(CC)CC(=O)N([C@@H]2CCOc3ccc(C(=O)NC4CCCOc5ccccc54)cc32)C(=N)N1 (stereo partly drawn) [Example 119, (4R)-4-(4,4-diethyl-2-imino-6-oxo-hexahydropyrimidin-1-yl)-N-(2,3,4,5-tetrahydro-1-benzoxepin-5-yl)chromane-6-carboxamide] | 2.8 nM
23 | CCC1(CC)CC(=O)N([C@H]2c3cc(C(=O)N[C@@H]4c5ccccc5C[C@H]4O)ccc3OC[C@@H]2C)C(=N)N1 [Example 120, (3R,4R)-4-(4,4-diethyl-2-imino-6-oxo-hexahydropyrimidin-1-yl)-N-[(1R,2R)-2-hydroxyindan-1-yl]-3-methyl-chromane-6-carboxamide] | 0.8 nM
24 | CC[C@]1(C)CC(=O)N([C@@H]2CCc3ccc(C(=O)N[C@@H]4c5ccccc5OC(C)(C)[C@H]4O)cc32)C(=N)N1 [Example 121, (3R)-3-[(4R)-4-ethyl-2-imino-4-methyl-6-oxo-hexahydropyrimidin-1-yl]-N-[(3S,4R)-3-hydroxy-2,2-dimethyl-chroman-4-yl]indane-5-carboxamide] | 0.6 nM
25 | CCC1(CC)CC(=O)N([C@@H]2CCc3ccc(C(=O)N[C@@H]4c5ccccc5OC[C@]4(C)O)cc32)C(=N)N1 [Example 122, (3R)-3-(4,4-diethyl-2-imino-6-oxo-hexahydropyrimidin-1-yl)-N-[(3R,4R)-3-hydroxy-3-methyl-chroman-4-yl]indane-5-carboxamide] | 3.9 nM
26 | CCC1(CC)CC(=O)N([C@@H]2CCc3ccc(C(=O)N[C@@H]4c5ccccc5OC[C@@]4(C)O)cc32)C(=N)N1 [Example 123, (3R)-3-(4,4-diethyl-2-imino-6-oxo-hexahydropyrimidin-1-yl)-N-[(3S,4R)-3-hydroxy-3-methyl-chroman-4-yl]indane-5-carboxamide] | 2.8 nM
27 | CC1(C)CC(=O)N([C@@H]2CC(C)(C)c3ccc(C(=O)N[C@@H]4c5ccccc5OC[C@@]4(C)O)cc32)C(=N)N1 [Example 124, (3R)-N-[(3S,4R)-3-hydroxy-3-methyl-chroman-4-yl]-3-(2-imino-4,4-dimethyl-6-oxo-hexahydropyrimidin-1-yl)-1,1-dimethyl-indane-5-carboxamide] | 57.5 nM
28 | CCC1(CC)CC(=O)N([C@@H]2CCCc3ccc(C(=O)N[C@@H]4c5ccccc5OC[C@H]4O)cc32)C(=N)N1 [Example 125, (4R)-4-(4,4-diethyl-2-imino-6-oxo-hexahydropyrimidin-1-yl)-N-[(3S,4R)-3-hydroxychroman-4-yl]tetralin-6-carboxamide] | 2.1 nM
